According to patent US4229204A, “Trifluoromethylphenyl isoxazolyl benzoates” (Monsanto Company, priority 1978, dated 1980):

How the values were obtained:
Format in all cases: in vivo
Barnyardgrass [1] = test: Pre-emergent herbicidal test
Protocol: (§1) The pre-emergent test was conducted as follows:
(§2) A good grade of top soil was placed in aluminum pans and compacted to a depth of three-eighths to one-half inch from the top of the pan. On the top of the soil was placed a predetermined number of seeds or vegetative propagules of various plant species which were pressed into the soil surface. The soil required to level fill the pans after seeding or adding vegetative propagules was weighed into a pan. A known amount of the active ingredient applied in a solvent or as a wettable powder and the soil were thoroughly mixed, and used as a cover layer for prepared pans.
(§3) The herbicidal rating was obtained by means of a fixed scale based on the percent injury of each plant species. The ratings are defined as follows: […]
(§4) The compounds were also tested by utilizing the above procedure on the following plant species: […]

Canada Thistle [2] = test: Pre-emergent herbicidal test; settings: 11.2 kg/h
Protocol: as §1, §2, §3, §4

Cocklebur [3] = test: Pre-emergent herbicidal test
Protocol: as §1, §2, §3, §4

Downy Brome [4] = test: Pre-emergent herbicidal test
Protocol: as §1, §2, §3, §4

Johnsongrass [5] = test: Pre-emergent herbicidal test; settings: 11.2 kg/h
Protocol: as §1, §2, §3, §4

Lambsquarters [6] = test: Pre-emergent herbicidal test
Protocol: as §1, §2, §3, §4

Morningglory [7] = test: Pre-emergent herbicidal test
Protocol: as §1, §2, §3, §4

Quackgrass [8] = test: Pre-emergent herbicidal test; settings: 11.2 kg/h
Protocol: as §1, §2, §3, §4

Smartweed [9] = test: Pre-emergent herbicidal test
Protocol: as §1, §2, §3, §4

Velvetleaf [10] = test: Pre-emergent herbicidal test
Protocol: as §1, §2, §3, §4

Yellow Nutsedge [11] = test: Pre-emergent herbicidal test; settings: 11.2 kg/h
Protocol: as §1, §2, §3, §4

Barnyardgrass [12] = test: Post-emergent herbicidal test; settings: 4 WAT, 11.2 kg/h
Protocol: (§5) The post-emergent tests were conducted as follows:
(§6) The active ingredients are applied in spray form to two or three week old specimens of various plant species. The spray, a solution or wettable powder suspension containing the appropriate rate of active ingredient to give the desired test rate and a surfactant, is applied to the plants.
as §4

Canada Thistle [13] = test: Post-emergent herbicidal test; settings: 4 WAT, 11.2 kg/h
Protocol: as §5, §6, §4

Cocklebur [14] = test: Post-emergent herbicidal test; settings: 4 WAT, 11.2 kg/h
Protocol: as §5, §6, §4

Downy Brome [15] = test: Post-emergent herbicidal test; settings: 4 WAT, 11.2 kg/h
Protocol: as §5, §6, §4

Johnsongrass [16] = test: Post-emergent herbicidal test; settings: 4 WAT, 11.2 kg/h
Protocol: as §5, §6, §4

Lambsquarters [17] = test: Post-emergent herbicidal test; settings: 4 WAT, 11.2 kg/h
Protocol: as §5, §6, §4

Morningglory [18] = test: Post-emergent herbicidal test; settings: 4 WAT, 11.2 kg/h
Protocol: as §5, §6, §4

Quackgrass [19] = test: Post-emergent herbicidal test; settings: 4 WAT, 11.2 kg/h
Protocol: as §5, §6, §4

Smartweed [20] = test: Post-emergent herbicidal test; settings: 4 WAT, 11.2 kg/h
Protocol: as §5, §6, §4

Velvetleaf [21] = test: Post-emergent herbicidal test; settings: 4 WAT, 11.2 kg/h
Protocol: as §5, §6, §4

Yellow Nutsedge [22] = test: Post-emergent herbicidal test; settings: 4 WAT, 11.2 kg/h
Protocol: as §5, §6, §4

Crabgrass = test: Pre-emergent herbicidal test; settings: 2 WAT
Protocol: as §1, §2, §3

Hemp Sesbania = test: Pre-emergent herbicidal test; settings: 2 WAT
Protocol: as §1, §2, §3

Panicum Spp. = test: Pre-emergent herbicidal test; settings: 2 WAT
Protocol: as §1, §2, §3

Rice = test: Pre-emergent herbicidal test; settings: 2 WAT
Protocol: as §1, §2, §3

Sorghum = test: Pre-emergent herbicidal test; settings: 2 WAT
Protocol: as §1, §2, §3

Soybean = test: Pre-emergent herbicidal test; settings: 2 WAT
Protocol: as §1, §2, §3

Sugarbeet = test: Pre-emergent herbicidal test; settings: 2 WAT
Protocol: as §1, §2, §3

Wheat = test: Pre-emergent herbicidal test; settings: 2 WAT
Protocol: as §1, §2, §3

Wild Buckwheat = test: Pre-emergent herbicidal test; settings: 2 WAT
Protocol: as §1, §2, §3

Measured: herbicidal rating
Further: ranges in brackets are in %.

CC(C)OC(=O)c1ccccc1-c1cc(-c2cccc(C(F)(F)F)c2)no1 [Example 8, Isopropyl 2-[3-[3-(Trifluoromethyl)Phenyl]-5-Isoxazolyl]Benzoate]
1 (25-49): Quackgrass [8]; 2 WAT | Barnyardgrass [12] | Cocklebur [14] | Smartweed [20]
3 (75-100): Lambsquarters [6]; 2 WAT, 11.2 kg/h
0 (0-24): Barnyardgrass [1]; 2 WAT, 11.2 kg/h | Canada Thistle [2]; 2 WAT | Cocklebur [3]; 2 WAT, 11.2 kg/h | Downy Brome [4]; 2 WAT, 11.2 kg/h | Johnsongrass [5]; 2 WAT | Morningglory [7]; 2 WAT, 11.2 kg/h | Smartweed [9]; 2 WAT, 11.2 kg/h | Velvetleaf [10]; 2 WAT, 11.2 kg/h | Yellow Nutsedge [11]; 2 WAT | Canada Thistle [13] | Downy Brome [15] | Johnsongrass [16] | Quackgrass [19] | Velvetleaf [21] | Yellow Nutsedge [22]
2 (50-74): Lambsquarters [17] | Morningglory [18]

CCCCOC(=O)c1ccccc1-c1cc(-c2cccc(C(F)(F)F)c2)no1 [Example 6, n-Butyl 2-[3-[3-(Trifluoromethyl)Phenyl]-5-Isoxazolyl]Benzoate]
0 (0-24): Sorghum; 0.28 kg/h | Soybean; 0.28 kg/h | Wheat; 0.28 kg/h | Cocklebur [3]; 2 WAT, 0.28 kg/h | Cocklebur [3]; 2 WAT, 1.12 kg/h | Johnsongrass [5]; 4 WAT | Velvetleaf [10]; 2 WAT, 0.28 kg/h | Velvetleaf [10]; 2 WAT, 1.12 kg/h | Downy Brome [15] | Yellow Nutsedge [22]
1 (25-49): Hemp Sesbania; 0.28 kg/h | Panicum Spp.; 1.12 kg/h | Sorghum; 1.12 kg/h | Soybean; 1.12 kg/h | Sugarbeet; 0.28 kg/h | Wheat; 1.12 kg/h | Wheat; 5.60 kg/h | Cocklebur [3]; 2 WAT, 5.60 kg/h | Cocklebur [3]; 4 WAT, 11.2 kg/h | Downy Brome [4]; 2 WAT, 1.12 kg/h | Morningglory [7]; 2 WAT, 0.28 kg/h | Morningglory [7]; 2 WAT, 1.12 kg/h | Velvetleaf [10]; 4 WAT, 11.2 kg/h | Yellow Nutsedge [11]; 4 WAT | Cocklebur [14] | Johnsongrass [16] | Lambsquarters [17] | Quackgrass [19] | Velvetleaf [21]
3 (75-100): Crabgrass; 0.28 kg/h | Crabgrass; 5.60 kg/h | Hemp Sesbania; 1.12 kg/h | Panicum Spp.; 0.28 kg/h | Rice; 1.12 kg/h | Rice; 5.60 kg/h | Sorghum; 5.60 kg/h | Soybean; 5.60 kg/h | Wild Buckwheat; 0.28 kg/h | Wild Buckwheat; 5.60 kg/h | Barnyardgrass [1]; 2 WAT, 0.28 kg/h | Barnyardgrass [1]; 2 WAT, 1.12 kg/h | Barnyardgrass [1]; 2 WAT, 5.60 kg/h | Barnyardgrass [1]; 4 WAT, 11.2 kg/h | Canada Thistle [2]; 4 WAT | Downy Brome [4]; 2 WAT, 5.60 kg/h | Downy Brome [4]; 4 WAT, 11.2 kg/h | Lambsquarters [6]; 2 WAT, 0.28 kg/h | Lambsquarters [6]; 2 WAT, 1.12 kg/h | Lambsquarters [6]; 2 WAT, 5.60 kg/h | Morningglory [7]; 2 WAT, 5.60 kg/h | Morningglory [7]; 4 WAT, 11.2 kg/h | Smartweed [9]; 2 WAT, 0.28 kg/h | Smartweed [9]; 2 WAT, 1.12 kg/h | Smartweed [9]; 2 WAT, 5.60 kg/h | Smartweed [9]; 4 WAT, 11.2 kg/h
2 (50-74): Crabgrass; 1.12 kg/h | Hemp Sesbania; 5.60 kg/h | Panicum Spp.; 5.60 kg/h | Rice; 0.28 kg/h | Sugarbeet; 1.12 kg/h | Sugarbeet; 5.60 kg/h | Wild Buckwheat; 1.12 kg/h | Downy Brome [4]; 2 WAT, 0.28 kg/h | Lambsquarters [6]; 4 WAT, 11.2 kg/h | Quackgrass [8]; 4 WAT | Velvetleaf [10]; 2 WAT, 5.60 kg/h | Barnyardgrass [12] | Canada Thistle [13] | Morningglory [18] | Smartweed [20]
